Several values for one entry are separate records, joined by “and”; a condition that tells them apart may be missing. Equal values may be shown once. Read-outs that look alike come from different tables or passages of the source.
Assays:
[1] = cited from earlier work
women [2] = conditions: cited from earlier work; for serious adverse effects/events: general statement
[3] = test system: normal menstruating women; assay: Pilot study of MEL 15 mg for 5 days in 3 normal menstruating women; assay type: in vivo, human
Procedure: A pilot study was performed using MEL 15 mg for 5 days in 3 normal menstruating women with a control no treatment but monitored cycle and a treatment cycle. Treatment was initiated when the participant was within one day of anticipated LH surge based on the control cycle.

women [4] = conditions: emergency contraception; cited from earlier work
[5] = 1.5 mg single dose, n=1359 women, Plan B One Step label
[6] = 15 mg, 12 week rheumatoid arthritis placebo controlled trial, Mobic label
[7] = oral 15 mg for 5 days in normal women

In the case of `C#C[C@]1(O)CC[C@H]2[C@@H]3CCC4=CC(=O)CC[C@@H]4[C@H]3CC[C@@]21CC` [Levonorgestrel, levonorgestrel], the “mean peak blood level” value ([1]; 1.5 mg, immunoassay methodology) is given as 18 ng/mL, the “absorption from the gastrointestinal tract” value ([1]; in vivo) is given as “almost completely absorbed” and the enzyme principally metabolizing ([1]; in vivo) is given as “CYP3A4”. For the same molecule, the estimated serum half-life ([1]; in vivo) was 27.5 h, the “mean peak serum level” value ([1]; two different laboratories, liquid chromatography and tandem mass spectrometry) was 18.3 ng/mL and 10.2 ng/mL and the breast tenderness (women [2]; [5]) was 8.2%. For the same molecule, the “delay of menses >7 days” value (women [2]; [5]) was 4.5%, the dizziness (women [2]; [5]) was 9.6% and the fatigue (women [2]; [5]) was 13.3%. The headache (women [2]; [5]) was 10.3%, the heavy menstrual bleeding (women [2]; [5]) was 30.9% and the lower abdominal pain (women [2]; [5]) was 13.3%. For the same molecule, the nausea (women [2]; [5]) was 13.7% and the serious adverse effects/events (women [2]; listed as LNG) was “have not been reported”.

For `Cc1cnc(NC(=O)C2=C(O)c3ccccc3S(=O)(=O)N2C)s1` [Meloxicam, meloxicam], the “effect on the LH surge dynamics” value [3] is given as “no effect”, the “time to steady state concentration” value ([1]; 15 mg daily) is given as “three to five” and the “time of peak serum levels” value ([1]; depending upon food intake) is given as “five or six”. The enzyme principally metabolizing ([1]; in vivo) was “CYP2C9”, the “incidence of adverse events” value (women [2]; 15 mg taken daily for 18 days) was 33.7% and the serious adverse events (women [2]; 15 mg taken daily for 18 days) was “no serious adverse events reported”. For the same molecule, the abdominal pain (women [2]; [6]) was 2.6%, the dizziness (women [2]; [6]) was 3.8% and the dyspepsia (women [2]; [6]) was 4.5%. For the same molecule, the edema (women [2]; [6]) was 4.5%, the headache (women [2]; [6]) was 8.3% and the nausea (women [2]; [6]) was 3.8%. For the same molecule, the skin rash (women [2]; [6]) was 0.6%, the serious adverse effects/events (women [2]) was “rare” and the adverse events (women [2]; [7]) was 27.3%. For the same molecule, the bloating (women [2]; [7]) was 4.5%, the hot flushes (women [2]; [7]) was 9.0% and the low abdominal pain (women [2]; [7]) was 13.6%.

For `CC(=O)O[C@]1(C(C)=O)CC[C@H]2[C@@H]3CCC4=CC(=O)CCC4=C3[C@@H](c3ccc(N(C)C)cc3)C[C@@]21C` [ulipristal acetate], the “preventing pregnancy as interval from unprotected intercourse to use increases” value (women [4]) is listed as “superior to LNG”.
